Test systems include PC-3 prostate; MDA-MB-231 breast; MDA-N; KM20L2 colon; XF 498 CNS.
Holding throughout (assay): DTP human tumour cell line panel, 48 h

Among the data in PubChem BioAssay (NCI) are TGI and GI50 values, retold here.

Molecules are shown by their SMILES.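 Results reflect a 48-hour exposure of cells in 96-well plates to compound at five concentrations. Abbreviation: GI50, concentration required for 50% inhibition of growth. TGI: total growth inhibition.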

For the compound `CCOC(=O)Nc1ccc(C)c(NC(=O)OCC)c1`, the total growth inhibition concentration (TGI) with PC-3 prostate, in the assay on MDA-MB-231 breast and with MDA-N was greater than 100 µM each time.
Regarding `O=C(Nc1nc(=S)c2c(ncn2CCOC(=O)c2ccccc2)[nH]1)c1ccccc1`, the concentration for total growth inhibition (TGI) in the assay on KM20L2 colon is greater than 100 µM.
As for `CCOC(=O)Nc1ccc(-c2nc(-c3cccc(OCCN4CCOCC4)c3)c(-c3ccnc(Br)c3)[nH]2)cc1`, in the assay with PC-3 prostate, the GI50 is 2.87 µM and the TGI was greater than 100 µM. Also, in the assay on MDA-MB-231 breast, the GI50 was 3.79 µM and the TGI was greater than 100 µM.
In the case of `CC(C)Oc1ccc2cc(-c3nn(CC4CCNCC4)c4ncnc(N)c34)ccc2c1`, in the assay with PC-3 prostate, the GI50 is 12 µM and the TGI stood at 25.8 µM. In addition, in the assay on MDA-MB-231 breast, the GI50 was 3.05 µM and the concentration for total growth inhibition (TGI) was determined as 9.94 µM.
Turning to `Nc1nc(/C=C\c2ccc([N+](=O)[O-])s2)nc(N2CCCC2)n1`, in the assay on PC-3 prostate, the GI50 is 3.92 µM and the TGI was 21.9 µM. In the assay on MDA-MB-231 breast, the GI50 was 1.56 µM and the concentration for total growth inhibition (TGI) was 9.35 µM.
For `COC1(OC)C(N(C)C)=C(Cl)C(=O)/C1=C/C=O`, the total growth inhibition concentration (TGI) with KM20L2 colon is greater than 100 µM.
Turning to `COc1c(OC[C@H](O)CN2CCOCC2)ccc2c3n(c(=NC(=O)c4cccnc4C)nc12)CCN3`, the GI50 in the assay on PC-3 prostate was 0.326 µM; with MDA-MB-231 breast, greater than 50 µM. The TGI in the assay on PC-3 prostate and with MDA-MB-231 breast was greater than 50 µM in each case.
For the compound `O=C1C=CC(=O)c2cc3cc(CBr)ccc3cc21`, the figures for the GI50 in the assay on PC-3 prostate and in the assay on MDA-MB-231 breast were 3.85 µM and 1.95 µM, respectively. Further, the TGI in the assay with PC-3 prostate is 8.9 µM; in the assay on MDA-MB-231 breast, 8.09 µM.
With `COc1cc(-n2cc(-c3ccc(F)cc3)[nH]c2=O)cc(OC)c1OC`, the GI50 in the assay on PC-3 prostate is greater than 100 µM; with MDA-MB-231 breast, 49.5 µM. In addition, the concentration for total growth inhibition (TGI) in the assay with PC-3 prostate and in the assay on MDA-MB-231 breast was greater than 100 µM each time.
Consider `Cc1ccccc1N1C(=O)C2C=CC(n3[nH]c(=O)n(Cc4ccccc4)c3=O)CC2C1=O` (stereo unspecified), for which the TGI in the assay with KM20L2 colon and with XF 498 CNS was greater than 100 µM each time.
With `CCOc1ccccc1NC(=O)C(=O)CC(=O)c1sc(Nc2nnc(-c3ccc(Cl)c(Cl)c3)o2)nc1C`, the TGI in the assay on KM20L2 colon was greater than 100 µM.
On to `CCCC(=O)Nc1cc2c3c(c1)CCCN3CCC2`, for which the TGI with PC-3 prostate, in the assay on MDA-MB-231 breast and in the assay with MDA-N was greater than 10 µM throughout.
`CN1C(=O)N(C)C2C1NN=c1s/c(=C\c3ccc(Cl)cc3Cl)c(=O)n12` (stereo unspecified): in the assay with PC-3 prostate, the 50% growth inhibitory concentration (GI50) is 0.167 µM and the TGI was greater than 100 µM. In addition, in the assay with MDA-MB-231 breast, the GI50 was 0.479 µM and the TGI turned out to be 19.6 µM.
Consider `C1CN2CCN3CCN4CCN1[P+]243`, for which the concentration for total growth inhibition (TGI) in the assay with KM20L2 colon and with XF 498 CNS was greater than 100 µM each time.
Turning to `C=CCCCCOc1ccccc1-c1cnc(OCCCCC=C)n1C`, the GI50 in the assay on PC-3 prostate is 5.38 µM; in the assay with MDA-MB-231 breast, 5.19 µM. In addition, the TGI was determined as 28.9 µM in the assay on PC-3 prostate and 20.3 µM in the assay on MDA-MB-231 breast.
For `COc1ccc(NC(=O)/C(Cc2cc(=O)oc3cc(O)ccc23)=N\NC(C)(C)C)c(OC)c1`, the TGI in the assay on KM20L2 colon and in the assay on XF 498 CNS was greater than 100 µM in each case.
For `CO/N=C(\COc1ccc2c(c1)oc(=O)c1cc(OC)ccc12)c1ccc(OC)cc1`, in the assay with PC-3 prostate, the GI50 is greater than 100 µM and the TGI was greater than 100 µM. Moreover, in the assay on MDA-MB-231 breast, the GI50 is greater than 100 µM and the TGI was greater than 100 µM.
`CC(=O)Oc1c2c(c(O)c3ccccc13)C(n1cnc3c(ncn3C3OC(CO)C4OC(C)(C)OC43)c1=N)CCC2` (stereo unspecified) came in with a total growth inhibition concentration (TGI) in the assay on KM20L2 colon of 53.5 µM.
As to `COc1ccc(/C=C2/N=C(c3ccccc3)N(c3c(C)n(C)n(-c4ccccc4)c3=O)C2=O)cc1OC`, in the assay on PC-3 prostate, the GI50 was greater than 100 µM and the TGI was greater than 100 µM. In the assay on MDA-MB-231 breast, the GI50 is greater than 100 µM and the TGI is greater than 100 µM.
Regarding `CCOC(=O)C(=[N+]=[N-])[Si](C)(C)C`, the total growth inhibition concentration (TGI) in the assay with KM20L2 colon and with XF 498 CNS was greater than 100 µM throughout.
With `O=C(O)Cc1cc(Cl)ccc1O`, the TGI in the assay with PC-3 prostate, in the assay on MDA-MB-231 breast and in the assay on MDA-N was greater than 100 µM in each case.
Compound `C1=CC(N(c2ccccc2)C2C=CCCC2)CCC1` (stereo unspecified) displayed a concentration for total growth inhibition (TGI) in the assay with KM20L2 colon greater than 100 µM.
`COc1cc2c(cc1OCCCNC(=O)c1cccc3c(=O)c4ccccc4[nH]c13)N=C[C@@H]1CCCN1C2=O`: in the assay on PC-3 prostate, the 50% growth inhibitory concentration (GI50) was less than 0.011 µM and the concentration for total growth inhibition (TGI) is 0.949 µM. Besides, in the assay with MDA-MB-231 breast, the GI50 was less than 0.01 µM and the TGI was less than 0.0484 µM.
Take `COc1cc(-c2cc(-c3cc4c([nH]c5ccccc54)c(-c4cc(OC)c(OC)c(OC)c4)n3)cc(-c3ccccc3)n2)cc(OC)c1OC`: in the assay on PC-3 prostate, the GI50 is 3.59 µM and the TGI worked out at 32.3 µM. In the assay with MDA-MB-231 breast, the GI50 is 3.59 µM and the TGI is greater than 100 µM.
With `[Cl][Hg][c]1cc[c]([Hg][Cl])o1`, the GI50 was 6.83 µM with PC-3 prostate and 1.9 µM with MDA-MB-231 breast. Also, the TGI in the assay with PC-3 prostate amounted to 28.5 µM; in the assay with MDA-MB-231 breast, 5.09 µM.
In the assay on KM20L2 colon, `N#CC(C(=O)C(=O)C(C#N)c1ccc(Br)cc1)c1ccc(Br)cc1` (stereo unspecified) showed a concentration for total growth inhibition (TGI) of 27.7 µM.
Consider `CN=C1CC2c3cc(OC)c(OC)cc3CCN2C2=C1C(=O)CC(C)(C)C2` (stereo unspecified), for which the TGI with KM20L2 colon is greater than 100 µM.
In the assay with XF 498 CNS, `Cc1cc(N(CCC#N)CCC#N)ccc1N=Nc1ccc(C(=O)O)cc1` had a total growth inhibition concentration (TGI) greater than 100 µM.
On to `CCOC(=O)C(Cc1ccc(CCCC(=O)NCCC(=O)Nc2ccc3nc(C)sc3c2)cc1)C(=O)OCC`, for which the results for the GI50 in the assay on PC-3 prostate and with MDA-MB-231 breast were 24.3 µM and 52.5 µM, respectively. Also, the TGI in the assay with PC-3 prostate is greater than 70.7 µM; in the assay with MDA-MB-231 breast, greater than 100 µM.
On the same counts, the results for `Clc1ccc2[nH]cc(-c3nnnn3-c3ccccc3)c2c1` are 18.6 µM, 33.8 µM, greater than 59.5 µM and greater than 100 µM.
Regarding `O=C(CSc1nc2ccccc2nc1-c1ccccc1)Nc1ccc(F)cc1`, the figures for the GI50 in the assay with PC-3 prostate and with MDA-MB-231 breast were 38.9 µM and 34.3 µM, respectively. Moreover, the concentration for total growth inhibition (TGI) with PC-3 prostate and with MDA-MB-231 breast was greater than 100 µM in each case.
As to `Oc1cccnc1[Se]`, the TGI in the assay on PC-3 prostate, with MDA-MB-231 breast and in the assay on MDA-N was greater than 100 µM in each case.
For `COc1ccc(-c2nc3ccc(-c4nc5ccc(N6CCN(c7ccccc7)CC6)cc5[nH]4)cc3[nH]2)cc1OC`, in the assay on PC-3 prostate, the GI50 was 1.59 µM and the total growth inhibition concentration (TGI) turned out to be 3.26 µM. In the assay with MDA-MB-231 breast, the GI50 was 2.48 µM and the total growth inhibition concentration (TGI) was 5.05 µM.

A word on the TGI: it is the concentration giving total growth inhibition. The low end stands for more potent growth arrest, the high end for less potent growth arrest. One may read the GI50 as the concentration giving 50% growth inhibition.
